Here are results for 9 molecules from patent US12234288B2, “Immunogenic arginase 2 polypeptides” (IO Biotech ApS, priority 2018, dated 2025).

The subject of assay [1] is PBMCs from healthy donors and cancer patients. Put plainly: IFNγ ELISPOT of PBMCs pre-stimulated one week in vitro with peptide and low-dose IL-2. The assay is classed as cell-based, human. Conditions: for IFNy ELISPOT response: validation of hotspot region peptides, PBMCs from two healthy donors, FIG. 4. As to the method:
For in vitro ELISPOT, PBMCs from cancer patients and healthy donors were pulsed with 20 μM of […] (or with no peptide as a control) and 120 U/ml IL-2 in 24-well plates for 7 days before being used in an ELISPOT assay. The cells were placed in 96-well nitrocellulose ELISPOT plates (MultiScreen MAIP N45; Millipore) pre-coated with IFNγ capture antibody (Mabtech). Arginase peptides added to a final concentration of 5 μM and plates incubated at 37° C. for 14-16 hours. After the incubation the cells were washed off and secondary biotinylated Ab (Mabtech, cat. 3420-{6-1000) was added for 2 hours at room temperature. Unbound secondary antibody was washed off and streptavidin conjugated alkaline phosphatase (AP) (Mabtech, cat. 3310-10) was added for 1 hour at room temperature. Unbound conjugated enzyme was washed off and the assay was developed by adding BCIP/NBT substrate (Mabtech, cat. 3650-10). Developed ELISPOT plates were analyzed on CTL ImmunoSpot S6 Ultimate-V analyzer using Immunospot software v5.1. Responses were reported as the difference between average numbers of spots in wells stimulated with arginase2 and wells without added peptide.
To test whether these peptides could be used to identify Arginase2 responses, PBMCs from 12 healthy donors and one cancer patients were screened for responses in IFNγ ELISPOT. PBMCs were stimulated with Arginase2 peptides and low dose IL-2 for 1 week prior to ELISPOT.
The entire arginase2 protein sequence was divided into overlapping 20-amino-acid-long peptides (with a final peptide of 24 amino acids), generating a library of 34 peptides covering the whole sequence (SEQ ID NOs 1-34)). Each peptide in the library overlapped with the first 10 amino acids of the following peptide. Using this arginase2 peptide library and the IFNγ ELISPOT assay, we next screened PBMCs from 6 healthy donors for spontaneous responses. The PBMCs were stimulated for one week with a pool of 3-4 adjacent 20-mer arginase2 library peptides and low-dose IL-2 (120 U/mL). They were then set up for an IFNγ ELISPOT assay to screen for responses against each 20-mer peptide separately.
PBMCs from two healthy donors were stimulated for one week with a single peptide and low-dose IL-2 (120 U/mL) before IFNy ELISPOTassay to validate the responses observed in the library screen.
PBMCs from […] were stimulated for one week with a single peptide and low-dose IL-2 (120 U/mL) before IFNy ELISPOTassay to validate the responses observed in the library screen. ARG2_1, ARG2_5, ARG2_13, ARG2_18 and ARG2_22 were tested in this validation.
ARG2_1 was used to screen for responses in 8 melanoma patients (AA07-AA31), 4 prostate cancer patients (UR07-27) and 13 healthy donors. PBMCs from each were stimulated for one week with a single peptide and low-dose IL-2 (120 U/mL) before IFNy ELISPOT assay.
PBMCs from healthy donors or cancer patients were stimulated with 10 μM of ARG2-derived peptides in vitro to enhance assay sensitivity. On day 2, IL-2 was added to a total of 120 U/ml IL-2 (Novartis). After 7 days, 4-6×10^5 PBMCs were placed at the bottom of an ELISPOT plate pre-coated with IFNy capture antibody (Mabtech). PBMCs from each donor or patient were set up in triplicates or quadruplicates for peptide (5 μM ARG2-derived peptide) and control stimulations. Cells were incubated in ELISPOT plates in the presence of an antigen for 14-16 hrs after which they were washed off and secondary biotinylated antibody (Mabtech) was added. After two hour incubation the secondary antibody was washed off before addition of streptavidin conjugated alkaline phosphatase (Mabtech) for 1 hr. Next, unbound enzyme was washed off and the assay was developed by adding BCIP/NBT subtrate (Mabtech). Developed ELISPOT plates were analyzed on CTL Immunospot S6 Ultimate-V analyzer with ImmunoSpot software, version 5.1. […]

Assay [2] concerns THP-1 cells. Put plainly: ARG1/ARG2 expression by RT-qPCR in THP-1 cells. Type of assay: cell-based, human. As to conditions: 48 hr stimulation, FIG. 17C/17H. As to the method:
(§1) Cytokine stimulation with IL-4 (400 U/ml), IL-13 (50 ng/ml), IFNy (100 U/ml) or cytokine cocktail (400 U/ml IL-4, 1000 U/ml GM-CSF and 1000 U/ml TNFa) was done by seeding of 0.5-0.75×10^6 cell/mL medium supplemented with the respective cytokines and 48 hrs of incubation before cells were harvested for various experiments. All cytokines are from Trichem.
(§2) Total RNA was reverse transcribed using the High Capacity cDNA Reverse Transcription Kit (Applied Biosystems). For each reaction, 1000 ng RNA was reverse transcribed. For RT-qPCR, the cDNA was diluted 1:5 and subjected to RT-qPCR analysis using the TaqMan Gene Expression Assay on the Roche Lightcycler 480 Instrument. RT-qPCRs were run in quadruplicates and data was analyzed using the ddCT-method with normalization to expression level of the house keeping gene RPLPO and control sample. For low concentration samples that were not amplified, Ct was set to 40. No-reverse transcriptase controls (cDNA reactions setup without reverse transcriptase) served as controls of specific amplification. A list of primers used in this study is found below.
A set of three siRNA duplexes targeting ARG2 was obtained from Ambion (ARG2 Silencer Select Validated siRNA, ID s1571, s1572, s1573). siRNAs were suspended in nuclease free water to 0.1 nmol stock solutions and stored at −80° C. For ARG2 silencing experiments, THP-1 cells were prepared for electroporation as described above and 10 μl of a working solution of 0.02 nmol siRNA solution was added of each of the three siRNA before transfection as previously described. Immediately after transfection, cells were transferred to pre-warmed medium and incubated for 1 hr. Transfected cells were then split in two and to half of the cells cytokine cocktail (400 U/ml IL-4, 1000 U/ml GM-CSF and 1000 U/ml TNFa) was added. Cells were incubated in medium or medium containing cytokine cocktail for 48 hrs before they were set up in intracellular cytokine staining assay. Cells were pelleted for RNA after 48 hrs for accession of knock down efficiency by RT-qPCR.

In assay [3] the test system is C57BL/6 mice. Put plainly: Peptide vaccination of mice followed by murine IFNy ELISPOT of spleen cells. The assay is classed as in vivo, mouse. Conditions: for mIFNy ELISPOT response to the peptide in mice vaccinated with mArg2 P5: FIG. 13; for mIFNy ELISPOT response after vaccination: three C57 mice per peptide vaccinated s.c., 7 days, FIG. 12 / FIG. 20A. From the text: 3 mice in each group are vaccinated s.c. with one of the six peptides. 7 days after, the mice are terminated, spleens are homogenised and PBMC are used for mIFNy ELISPOT.
These peptides are used for a vaccination screen (see experimental schematic in FIG. 11), where three C57 mice are vaccinated subcutaneously with one of the 6 peptides. One week later, the mice are sacrificed and the spleens homogenized to obtain PBMC. These are used to set up IFNy ELISPOT to screen for responses against both the peptide used for vaccination and the other predicted epitope peptides with overlapping sequences.
(§3) Dissolved peptides were subsequently emulsified with Montanide™ adjuvant (50ul/mouse) (Seppic Inc.) for an optimal dose of 100 ug total peptide given in a total volume of 100 ul. The emulsified peptide vaccination was injected subcutaneously at the base or the tail or the flank of 12-16 week old C57BL/6 mice with a 27G needle. Control mice were given water and Montanide™ emulsification in a total volume of 100 ul. For therapeutic vaccine studies on tumor inoculated mice, vaccinations were given at day 0 and 7 after tumor inoculation at the flank of the tail and the left flank, respectively. For epitope screening- and validation experiments, a single dose of vaccine was given to mice at the right flank. One week later, mice were sacrificed, and spleens were recovered. Spleens were smashed through a […] filter and red blood cells were lysed using Red Blood Cell Lysis Buffer (Qiagen). Cells were washed 4 times and counted before setup for murine IFNy ELISPOT assay with 8*10^6 cells pr. well.

The subject of assay [4] is Lewis Lung (LL2) tumor cells. Put plainly: Therapeutic vaccination study in Lewis Lung (LL2) tumor inoculated mice. Type of assay: in vivo. Conditions: LL2 tumors in C57BL/6 mice, vaccinations day 0 and day 7, compared to control, FIG. 20E-G. On the procedure:
LL2 cells (5*10^5) were resuspended in 100 ul of serum free medium and were injected subcutaneously in the right flank of female C57BL/6 mice. Tumor volumes were measured by digital caliper and the endpoint of tumor study was a tumor reaching the threshold size of 800 mm^3 or due to the formation of ulcers on the tumor.
as §3, with “well. […]” for “well.”

Assay [5] concerns THP-1 cells. Put plainly: Flow cytometric analysis of HLA-DR expression in THP-1 cells. The assay is classed as cell-based, human. As to conditions: 48 hrs stimulation, data not shown. On the procedure: HLA-DR expression analysis was performed on cells stimulated for 48 hrs with mock (no cytokines), IFNy (100U/ml) or cytokine cocktail (400U/m1 IL-4, 1000 U/ml GM-CSF and 1000 U/ml TNFa). Briefly, cells were washed and stained with 7-AAD (cat: 51-68981E, BD Bioscience) and FITC-conjugated mouse anti-human HLA-DR, DP, DQ (cat: 5555581, BD Bioscience) or FITC-conjugated mouse IgG1 K isotype ctrl (FC) (cat: 400109, BD Bioscience) for 30 minutes at 4° C. Excess antibody was washed off before cells were analyzed on FACSCanto™ II instrument. HLA-DR expression levels is given as the difference in MFI between MHC Class II stained live cells and isotype control stained live cells.

Assay [6] relates to MONO-MAC-1 cells. Put plainly: ARG2 expression by RT-qPCR in MONO-MAC-1 cells. As to conditions: 48 hrs incubation, FIG. 18A/B. The assay is classed as cell-based, human. As to the method: as §1, §2

Take “FSWIKPCISSASIVYIGLRD (listed as Homo sapiens) [ARG2_18, polypeptide derived from human Arginase2, aa181-200]”: the “IFNy ELISPOT response” value in assay [1] is “strongest and most consistent responses”.

“IL-13: cytokine from Trichem, used at 50 ng/ml [reference compound]”: the “induction of ARG2 expression” value in assay [2] is “did not have much effect”.

For the molecule “LSPPNIVYI (listed as Mus musculus) [mArg2 P5, polypeptide derived from murine Arginase2, aa188-196]”, the “mIFNy ELISPOT response to the peptide in mice vaccinated with mArg2 P5” value (“mIFNy ELISPOT response to the peptide” for short) in assay [3] (listed as mArg2_188-196) is reported as “strong mIFNy responses”. The “mIFNy ELISPOT response after vaccination” value in assay [3] was “strongest and most prominent responses”.

For the molecule “NYDIQYFSMRDIDRLGIQKV (listed as Homo sapiens) [ARG2_21, polypeptide derived from human Arginase2, aa211-230]”, in assay [1], the “IFNy ELISPOT response” value is recorded as “stronger response”.

For the molecule “PNIVYIGL (listed as Mus musculus) [mArg2 P3, polypeptide derived from murine Arginase2, aa191-198]”, the “mIFNy ELISPOT response to the peptide” value in assay [3] was “no response or only weak responses”.

For “SASIVYIGLRDVDPPEHFIL (listed as Homo sapiens) [ARG2-E18, polypeptide derived from human Arginase2, aa190-209]”, in assay [1] (hotspot peptide screen, PBMCs from 12 healthy donors and one cancer patient, FIG. 2), the “IFNγ ELISPOT response” value is “highest and most consistent response”.

Consider “WIKPCLSPPNIVYIGL (listed as Mus musculus) [mArg2 P4, polypeptide derived from murine Arginase2, aa182-197]”, for which the tumor growth entry in assay [4] is given as “decreased tumor growth”. In addition, in assay [3] (listed as mArg2_182-197), the “mIFNy ELISPOT response to the peptide” value was “strong mIFNy responses”. Besides, the “mIFNy ELISPOT response after vaccination” value in assay [3] is on record as “Strong immune responses”.

B1: IL-4: cytokine from Trichem, used at 400 U/ml (protein, UniProt P05112 25-153, looked up)
Interleukin-4: HKCDITLQEIIKTLNSLTEQKTLCTELTVTDIFAASKNTTEKETFCRAATVLRQFYSHHEKDTRCLGATAQQFHRHKQLIRFLKRLDRNLWGLAGLNSCPVKEANQSTLENFLERLKTIMREKYSKCSS
In the case of B1, the “induction of ARG2 expression” value in assay [2] is reported as “did not have much effect”.

B2: IFNy: cytokine from Trichem, used at 100 U/ml (protein, UniProt P01579 24-161, looked up)
Interferon gamma: QDPYVKEAENLKKYFNAGHSDVADNGTLFLGILKNWKEESDRKIMQSQIVSFYFKLFKNFKDDQSIQKSVETIKEDMNVKFFNSNKKKRDDFEKLTNYSVTDLNVQRKAIHELIQVMAELSPAAKTGKRKRSQMLFRG
In the case of B2, the “induction of ARG2 expression” value in assay [2] is on record as “not ARG2 expression”. For the same molecule, the HLA-DR expression entry in assay [5] is “increase HLA-DR expression”. Also, the ARG2 expression entry in assay [6] is “did not upregulate ARG2 expression”.
